In DBAASP:
≈ marks a conversion by molar mass, not a printed value.

Legend:
Experiment in all cases: ≥ marks a high value that may be exact or a test limit, other limits are often not marked, values filed in µg/mL are converted to µM
[1] = tested on: Acinetobacter baumannii ATCC 19606
[2] = tested on: Pseudomonas aeruginosa ATCC 27853
[3] = tested on: Bacillus subtilis ATCC 23857
[4] = tested on: Staphylococcus aureus ATCC 25923
[5] = tested on: Escherichia coli ATCC 25922
[6] = tested on: Klebsiella pneumoniae ATCC 700603
[7] = tested on: Staphylococcus epidermidis ATCC 12228
[8] = tested on: Enterococcus faecalis ATCC 29212
Bacillus cereus = tested on: Bacillus cereus
[9] = tested on: Staphylococcus aureus ATCC 2592
[10] = tested on: Candida albicans ATCC 2002
Pseudomonas aeruginosa = tested on: Pseudomonas aeruginosa
Shigella dysenteriae = tested on: Shigella dysenteriae
[11] = tested on: Bacillus subtilis ATCC 6633
Staphylococcus aureus = tested on: Staphylococcus aureus
Escherichia coli B = tested on: Escherichia coli B
Bacillus subtilis 168 = tested on: Bacillus subtilis 168
[12] = tested on: Pseudomonas aeruginosa ATCC 9027

SMILES	MIC [3]	MIC [5]	MIC (Pseudomonas aeruginosa)	MIC (Staphylococcus aureus)	MIC (Escherichia coli B)	MIC (Bacillus subtilis 168)	other results
C[C@@H](O)[C@H](NC(=O)[C@H](CCCCN)NC(=O)[C@H](Cc1c[nH]c2ccccc12)NC(=O)[C@H](CCCN=C(N)N)NC(=O)[C@H](CCCCN)NC(=O)[C@H](Cc1ccccc1)NC(=O)[C@H](Cc1ccccc1)NC(=O)CN)C(=O)N[C@@H](Cc1ccccc1)C(=O)N[C@@H](Cc1ccccc1)C(N)=O [GFFKRWKTFF]	16 µM (≈ 21.8 µg/mL)	16 µM (≈ 21.8 µg/mL)					MIC [1]: 64 µM (≈ 87.2 µg/mL); MIC [2]: 8 µM (≈ 10.9 µg/mL); MIC [4]: 16 µM (≈ 21.8 µg/mL); MIC [6]: 32 µM (≈ 43.6 µg/mL); MIC [7]: 4 µM (≈ 5.45 µg/mL); MIC [8]: 64 µM (≈ 87.2 µg/mL)
CC[C@H](C)[C@H](NC(=O)CN)C(=O)N[C@H](C(=O)N[C@@H](C)C(=O)NCC(=O)N[C@H](C(=O)N[C@H](C(=O)N[C@H](C(=O)N[C@@H](CCCCN)C(=O)N[C@@H](C)C(=O)N[C@@H](CCCCN)C(=O)N[C@@H](CCCCN)C(N)=O)[C@@H](C)CC)[C@@H](C)CC)[C@@H](C)CC)[C@@H](C)CC [GIIAGIIIKAKK]	≥ 64 µM	128 µM (≈ 157 µg/mL)					
CC[C@H](C)[C@H](NC(=O)CN)C(=O)N[C@@H](CC(C)C)C(=O)N[C@@H](CC(=O)O)C(=O)N[C@@H](C)C(=O)N[C@H](C(=O)N[C@@H](CCCCN)C(=O)N[C@@H](C)C(=O)N[C@@H](Cc1ccccc1)C(=O)N[C@@H](C)C(=O)N[C@@H](CC(N)=O)C(=O)N[C@@H](C)C(=O)N[C@@H](CC(C)C)C(=O)NCC(N)=O)[C@@H](C)CC [GILDAIKAFANALG]		32 µM (≈ 44 µg/mL)	4 µM (≈ 5.5 µg/mL)				MIC (Bacillus cereus): 8.01 µM (≈ 11 µg/mL); MIC [9]: 4 µM (≈ 5.5 µg/mL); MIC [10]: ≥ 48 µM; MIC (Shigella dysenteriae): 2 µM (≈ 2.75 µg/mL); MIC [11]: 4 µM (≈ 5.5 µg/mL)
CC[C@H](C)[C@H](NC(=O)CNC(=O)[C@H](CO)NC(=O)[C@H](CC(C)C)NC(=O)[C@H](CC(C)C)NC(=O)CN)C(=O)N[C@@H](CC(C)C)C(=O)NCC(=O)N[C@@H](C)C(=O)NCC(=O)N[C@@H](CCCCN)C(=O)N[C@@H](Cc1cnc[nH]1)C(=O)N[C@H](C(=O)N[C@H](C(=O)N[C@H]1CSSC[C@@H](C(=O)N[C@@H](C)C(=O)N[C@@H](CCCCN)C(=O)N[C@@H](C)C(=O)O)NC(=O)CNC(=O)[C@H]([C@@H](C)O)NC(=O)[C@H](CC(C)C)NC(=O)CNC1=O)C(C)C)[C@@H](C)CC [GLLSGILGAGKHIVCGLTGCAKA]		> 46.7 µM					MIC [9]: 4.38 µM (≈ 9.37 µg/mL); MIC [10]: 8.76 µM (≈ 18.7 µg/mL); MIC (Shigella dysenteriae): 17.5 µM (≈ 37.5 µg/mL)
CC[C@H](C)[C@H](NC(=O)[C@H](CC(C)C)NC(=O)[C@H](Cc1cnc[nH]1)NC(=O)CNC(=O)[C@H](CC(C)C)NC(=O)[C@@H](NC(=O)[C@H](CCCCN)NC(=O)[C@@H]1CCCN1C(=O)[C@H](Cc1c[nH]c2ccccc12)NC(=O)[C@H](CCSC)NC(=O)CN)[C@@H](C)CC)C(=O)N[C@@H](CCCN=C(N)N)C(N)=O [GMWPKILGHLIR]			> 100 µM	75 µM (≈ 106 µg/mL)	≥ 33.3 µM	3 µM (≈ 4.26 µg/mL)	
CC[C@H](C)[C@H](NC(=O)[C@H](CCCCN)NC(=O)[C@H](CCCCN)NC(=O)[C@H](C)NC(=O)[C@@H](NC(=O)[C@H](C)NC(=O)[C@H](C)NC(=O)[C@H](CC(C)C)NC(=O)[C@H](C)NC(=O)[C@H](CCCCN)NC(=O)[C@H](CC(C)C)NC(=O)[C@H](CC(N)=O)NC(=O)CN)C(C)C)C(=O)N[C@@H](CC(C)C)C(N)=O [GNLKALAAVAKKIL]	8 µM (≈ 11.3 µg/mL)	64 µM (≈ 90.2 µg/mL)					MIC [4]: > 128 µM; MIC [6]: 128 µM (≈ 180 µg/mL); MIC [12]: 64 µM (≈ 90.2 µg/mL)
CC(C)C[C@H](NC(=O)[C@H](CCC(N)=O)NC(=O)[C@H](CCCCN)NC(=O)[C@H](Cc1ccc(O)cc1)NC(=O)[C@@H]1CCCN1C(=O)[C@H](CCC(N)=O)NC(=O)[C@H](C)NC(=O)[C@H](CO)NC(=O)CN)C(=O)N[C@@H](Cc1cnc[nH]1)C(=O)N[C@@H](CCCCN)C(=O)N[C@H](C(=O)N[C@H](C(=O)N[C@@H](CC(N)=O)C(=O)N[C@@H](Cc1c[nH]c2ccccc12)C(=O)N[C@@H](CC(=O)O)C(=O)N1CCC[C@H]1C(=O)N[C@@H](Cc1ccc(O)cc1)C(=O)NCC(=O)O)C(C)C)C(C)C [GSAQPYKQLHKVVNWDPYG]		> 45.7 µM					MIC [9]: 6.86 µM (≈ 15 µg/mL); MIC [10]: 13.7 µM (≈ 30 µg/mL); MIC (Shigella dysenteriae): 27.4 µM (≈ 60 µg/mL)
CC[C@H](C)[C@H](NC(=O)[C@H](Cc1cnc[nH]1)NC(=O)[C@H](CCCCN)NC(=O)[C@H](CC(C)C)NC(=O)[C@H](CC(C)C)NC(=O)[C@H](CO)NC(=O)[C@H](CCSC)NC(=O)[C@H](Cc1c[nH]c2ccccc12)NC(=O)[C@H](CCCCN)NC(=O)[C@@H](N)Cc1cnc[nH]1)C(=O)N[C@@H](CC(C)C)C(=O)N[C@@H](CCCCN)C(N)=O [HKWMSLLKHILK]			100 µM (≈ 153 µg/mL)	38.3 µM (≈ 58.7 µg/mL)	3.5 µM (≈ 5.37 µg/mL)	1.5 µM (≈ 2.3 µg/mL)	
CC[C@H](C)[C@H](NC(=O)[C@H](CCCCN)NC(=O)[C@H](CCCCN)NC(=O)[C@H](C)NC(=O)[C@@H](NC(=O)[C@H](C)NC(=O)[C@H](CC(C)C)NC(=O)[C@H](CC(C)C)NC(=O)[C@H](C)NC(=O)[C@H](CCCCN)NC(=O)[C@H](CC(C)C)NC(=O)[C@H](CC(N)=O)NC(=O)[C@@H](N)CCCCN)C(C)C)C(=O)N[C@@H](CC(C)C)C(N)=O [KNLKALLAVAKKIL]	8 µM (≈ 12.2 µg/mL)	8 µM (≈ 12.2 µg/mL)					MIC [4]: 64 µM (≈ 97.4 µg/mL); MIC [6]: 16 µM (≈ 24.4 µg/mL); MIC [12]: 8 µM (≈ 12.2 µg/mL)
CC[C@H](C)[C@H](NC(=O)[C@H](CCCCN)NC(=O)[C@H](CCCCN)NC(=O)[C@H](C)NC(=O)[C@@H](NC(=O)[C@H](C)NC(=O)CNC(=O)[C@H](CC(C)C)NC(=O)[C@H](C)NC(=O)[C@H](CCCCN)NC(=O)[C@H](CC(C)C)NC(=O)[C@H](CC(N)=O)NC(=O)[C@@H](N)CC(C)C)C(C)C)C(=O)N[C@@H](CC(C)C)C(N)=O [LNLKALGAVAKKIL]	≥ 32 µM	32 µM (≈ 46.4 µg/mL)					MIC [4]: 128 µM (≈ 186 µg/mL); MIC [6]: 64 µM (≈ 92.9 µg/mL); MIC [12]: 32 µM (≈ 46.4 µg/mL)
CSCC[C@H](NC(=O)[C@H](Cc1cnc[nH]1)NC(=O)[C@H](C)NC(=O)[C@H](CCSC)NC(=O)[C@@H](NC(=O)[C@H](CCCCN)NC(=O)[C@@H]1CCCN1C(=O)[C@@H](N)CC(C)C)C(C)C)C(=O)N[C@@H](CCCCN)C(N)=O [LPKVMAHMK]			100 µM (≈ 105 µg/mL)	100 µM (≈ 105 µg/mL)	≥ 100 µM	≥ 100 µM	
CSCC[C@H](NC(=O)[C@H](Cc1cnc[nH]1)NC(=O)[C@H](C)NC(=O)[C@H](CCSC)NC(=O)[C@@H](NC(=O)[C@H](CCCCN)NC(=O)[C@@H]1CCCN1)C(C)C)C(=O)N[C@@H](CCCCN)C(N)=O [PKVMAHMK]					≥ 100 µM	≥ 100 µM	
CC[C@H](C)[C@H](NC(=O)[C@H](CCCCN)NC(=O)[C@H](CCCCN)NC(=O)[C@H](Cc1c[nH]c2ccccc12)NC(=O)[C@H](CC(N)=O)NC(=O)[C@@H](N)C(C)C)C(=O)N[C@@H](CC(C)C)C(=O)NCC(=O)N[C@@H](CCCCN)C(=O)N[C@H](C(=O)N[C@H](C(=O)N[C@@H](CCCCN)C(=O)N[C@H](C(=O)N[C@H](C(=O)N[C@@H](CCCCN)C(=O)O)C(C)C)C(C)C)[C@@H](C)CC)[C@@H](C)CC [VNWKKILGKIIKVVK]			40 µM (≈ 70.7 µg/mL)	40 µM (≈ 70.7 µg/mL)	3.5 µM (≈ 6.18 µg/mL)	1.2 µM (≈ 2.12 µg/mL)	
CC[C@H](C)[C@H](NC(=O)[C@H](CCCCN)NC(=O)[C@H](CCCCN)NC(=O)[C@H](Cc1c[nH]c2ccccc12)NC(=O)[C@H](CC(N)=O)NC(=O)[C@@H](N)C(C)C)C(=O)N[C@@H](CC(C)C)C(=O)N[C@@H](CCCCN)C(=O)N[C@@H](CCCCN)C(=O)N[C@H](C(=O)N[C@H](C(=O)N[C@@H](CCCCN)C(=O)N[C@H](C(=O)N[C@@H](C)C(=O)N[C@@H](CCCCN)C(N)=O)C(C)C)[C@@H](C)CC)[C@@H](C)CC [VNWKKILKKIIKVAK]			26.1 µM (≈ 47.2 µg/mL)	15.6 µM (≈ 28.2 µg/mL)	0.7 µM (≈ 1.27 µg/mL)	0.7 µM (≈ 1.27 µg/mL)	
